In US8431704B2, “Quinoline or isoquinoline substituted P2X7 antagonists” (Janssen Pharmaceutica NV, priority 2008, dated 2013):

Target: T1, P2X7 (Homo sapiens, UniProt Q99572)
T1 construct: endogenous in cells; host or cells: THP-1 human monocytic cell line
T1 sequence (Q99572 1-595): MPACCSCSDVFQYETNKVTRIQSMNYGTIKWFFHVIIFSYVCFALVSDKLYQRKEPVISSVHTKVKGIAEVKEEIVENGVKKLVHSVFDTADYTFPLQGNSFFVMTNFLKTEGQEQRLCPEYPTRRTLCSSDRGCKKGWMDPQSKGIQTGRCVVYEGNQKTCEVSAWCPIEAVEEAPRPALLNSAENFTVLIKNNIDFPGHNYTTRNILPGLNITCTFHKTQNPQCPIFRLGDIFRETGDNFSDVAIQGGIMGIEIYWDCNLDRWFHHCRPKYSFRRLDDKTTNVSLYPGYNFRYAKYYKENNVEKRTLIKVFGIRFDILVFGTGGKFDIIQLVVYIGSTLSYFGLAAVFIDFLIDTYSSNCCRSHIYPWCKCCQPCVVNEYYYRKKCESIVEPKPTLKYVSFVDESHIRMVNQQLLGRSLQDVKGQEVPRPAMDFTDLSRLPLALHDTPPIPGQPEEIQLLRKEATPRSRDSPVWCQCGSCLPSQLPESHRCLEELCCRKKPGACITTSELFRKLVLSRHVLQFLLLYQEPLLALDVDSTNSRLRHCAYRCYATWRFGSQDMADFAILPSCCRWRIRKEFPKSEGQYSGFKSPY
Assay: THP-1 YoPro uptake assay (BzATP-stimulated Yo-Pro-1 uptake)
Format: cell-based
Settings: Table F-10, THP-1 cells, read-out: mean pIC50 values for P2X7 antagonism (converted)
Description: The human monocytic cell line THP-1 was grown as a suspension culture in RPMI medium supplemented with 10% fetal bovine serum, penicillin/streptomycin (50 units/mL), 2 mM L-glutamine, and 20 μM 2-mercaptoethanol. Cells were maintained at a density below 0.5 million per mL. On the day of the assay, cells were washed twice with assay buffer, and then resuspended at 2 million per mL in assay buffer containing 2 μM Yo-Pro-1 (Invitrogen). The assay buffer contained (in mM): 280 sucrose, 5 KCl, 10 glucose, 10 HEPES, 5 N-methyl-D-glucamine. The cells were added at 200 k/well into poly-D-lysine-coated black-walled 96-well plates (Biocoat, Becton-Dickinson). Test compounds were dissolved in DMSO, and then added at the test concentration to each well of the 96-well plate. Concentration dependence of block was determined by exposing each well of cells in duplicate rows of a 96-well plate to a serial dilution of test compound. The concentration series usually started at 10 μM with a three-fold decrement in concentration. The final DMSO concentration seen by the cells was less than 0.5%. Cells were incubated with test compounds for 30 minutes at 37° C. A background reading was taken using a Gemini SpectraMax with 490 nm excitation and 530 nm emission. […] After incubation for 60 minutes at 37° C., an endpoint read was taken in the SpectraMax plate reader. The amount of block of the response was determined by comparing the fluorescence intensity in each well to the average of control wells on each plate. The control wells contained either a known antagonist of P2X7 (positive controls) or a concentration of DMSO equal to that in the test wells. Data were analyzed using a nonlinear regression program (Origin, OriginLab, MA). Results are reported as the −log of the IC50 (pIC50).

IC50	Compound
1.12 nM	N[C@@H]1CCCN(c2ccc3c(C(=O)NCC(c4cnc(C(F)(F)F)nc4)N4CCC(F)(F)CC4)c(Cl)ccc3n2)C1 (stereo partly drawn) [Compound 423]
2.24 nM	N[C@H]1CCCN(c2ccc3c(C(=O)NCC(c4cnc(C(F)(F)F)nc4)N4CCC(F)(F)CC4)c(Cl)ccc3n2)C1 (stereo partly drawn) [Compound 424]
6.31 nM	O=C(NCC(c1cnc(C(F)(F)F)nc1)N1CCC(F)(F)CC1)c1c(Cl)ccc2nc(N3CCN(C4CC4)CC3)ccc12 (stereo not drawn) [Compound 425]
5.75 nM	CC(C)CN1CCN(c2ccc3c(C(=O)NCC(c4cnc(C(F)(F)F)nc4)N4CCC(F)(F)CC4)c(Cl)ccc3n2)CC1 (stereo not drawn) [Compound 426]
3.39 nM	CC(C)N1CCN(c2ccc3c(C(=O)NCC(c4cnc(C(F)(F)F)nc4)N4CCC(F)(F)CC4)c(Cl)ccc3n2)CC1 (stereo not drawn) [Compound 427]
3.24 nM	CCN1CCN(c2ccc3c(C(=O)NCC(c4cnc(C(F)(F)F)nc4)N4CCC(F)(F)CC4)c(Cl)ccc3n2)CC1 (stereo not drawn) [Compound 428]
24.5 nM	O=C(NCC(c1cnc(C(F)(F)F)nc1)N1CCOCC1)c1c(Cl)ccc2nc(N3CCC4(CC3)OCCCO4)ccc12 (stereo not drawn) [Compound 441]
224 nM	O=C(NCC(c1cnc(C(F)(F)F)nc1)N1CCOCC1)c1c(Cl)ccc2nc(N3CCC(N4CCCC4=O)CC3)ccc12 (stereo not drawn) [Compound 442]
19.5 nM	O=C(NCC(c1cnc(C(F)(F)F)nc1)N1CCOCC1)c1c(Cl)ccc2nc(N3CCC(O)CC3)ccc12 (stereo not drawn) [Compound 452]
25.7 nM	O=C(NCC(c1cnc(C(F)(F)F)nc1)N1CCOCC1)c1c(Cl)ccc2nc(N3CCN(CCO)CC3)ccc12 (stereo not drawn) [Compound 455]
117 nM	O=C(NCC(c1cnc(C(F)(F)F)nc1)N1CCOCC1)c1c(Cl)ccc2nc(N3CCC(C(=O)O)CC3)ccc12 (stereo not drawn) [Compound 464]
7.76 nM	O=C(NCC(c1cnc(C(F)(F)F)nc1)N1CCC(F)(F)CC1)c1c(Cl)ccc2nc(N3CC(O)C3)ccc12 (stereo not drawn) [Compound 465]
8.13 nM	O=C(NCC(c1cnc(C(F)(F)F)nc1)N1CCC(F)(F)CC1)c1c(Cl)ccc2nc(N3CCCOCC3)ccc12 (stereo not drawn) [Compound 466]
6.92 nM	CCC(C)Nc1ccc2c(C(=O)NCC(c3cnc(C(F)(F)F)nc3)N3CCC(F)(F)CC3)c(Cl)ccc2n1 (stereo not drawn) [Compound 467]
22.4 nM	O=C(NCC(c1cnc(C(F)(F)F)nc1)N1CCC(F)(F)CC1)c1c(Cl)ccc2nc(NC3CCOCC3)ccc12 (stereo not drawn) [Compound 468]
7.76 nM	O=C(NCC(c1cnc(C(F)(F)F)nc1)N1CCC(F)(F)CC1)c1c(Cl)ccc2nc(N3CC[C@@H](O)C3)ccc12 (stereo partly drawn) [Compound 484]
2.24 nM	O=C(NCC(c1cnc(C(F)(F)F)nc1)N1CCC(F)(F)CC1)c1c(Cl)ccc2nc(N3CCNCC3)ccc12 (stereo not drawn) [Compound 485]
3.8 nM	CC(C)Nc1ccc2c(C(=O)NCC(c3cnc(C(F)(F)F)nc3)N3CCC(F)(F)CC3)c(Cl)ccc2n1 (stereo not drawn) [Compound 491]
2.45 nM	CNc1ccc2c(C(=O)NCC(c3cnc(C(F)(F)F)nc3)N3CCC(F)(F)CC3)c(Cl)ccc2n1 (stereo not drawn) [Compound 492]
8.71 nM	O=C(NCC(c1cnc(C(F)(F)F)nc1)N1CCC(F)(F)CC1)c1c(Cl)ccc2nc(NC3CC3)ccc12 (stereo not drawn) [Compound 493]
14.1 nM	C[C@@H]1CN(c2ccc3c(C(=O)NCC(c4cnc(C(F)(F)F)nc4)N4CCC(F)(F)CC4)c(Cl)ccc3n2)C[C@H](C)O1 (stereo partly drawn) [Compound 494]
7.41 nM	O=C(NCC(c1cnc(C(F)(F)F)nc1)N1CCC(F)(F)CC1)c1c(Cl)ccc2nc(NCCO)ccc12 (stereo not drawn) [Compound 495]

Second part, the compound before the results:

Compound	IC50
O=C(NCC(c1cnc(C(F)(F)F)nc1)N1CCOCC1)c1c(Cl)ccc2nc(NCCCO)ccc12 (stereo not drawn) [Compound 430]	22.4 nM
O=C(NCC(c1cnc(C(F)(F)F)nc1)N1CCOCC1)c1c(Cl)ccc2nc(NCC3CCCO3)ccc12 (stereo not drawn) [Compound 432]	100000 nM
CNCCCN(C)c1ccc2c(C(=O)NCC(c3cnc(C(F)(F)F)nc3)N3CCOCC3)c(Cl)ccc2n1 (stereo not drawn) [Compound 433]	11.5 nM
O=C(NCC(c1cnc(C(F)(F)F)nc1)N1CCOCC1)c1c(Cl)ccc2nc(NCc3ccccc3)ccc12 (stereo not drawn) [Compound 434]	14.5 nM
O=C(NCC(c1cnc(C(F)(F)F)nc1)N1CCOCC1)c1c(Cl)ccc2nc(NCc3cccnc3)ccc12 (stereo not drawn) [Compound 435]	77.6 nM
CC1CN(c2ccc3c(C(=O)NCC(c4cnc(C(F)(F)F)nc4)N4CCOCC4)c(Cl)ccc3n2)CC(C)N1 (stereo not drawn) [Compound 436]	31.6 nM
Cc1ccccc1CNc1ccc2c(C(=O)NCC(c3cnc(C(F)(F)F)nc3)N3CCOCC3)c(Cl)ccc2n1 (stereo not drawn) [Compound 437]	155 nM
O=C(NCC(c1cnc(C(F)(F)F)nc1)N1CCOCC1)c1c(Cl)ccc2nc(NCc3ccc(F)cc3)ccc12 (stereo not drawn) [Compound 438]	22.9 nM
O=C(NCC(c1cnc(C(F)(F)F)nc1)N1CCOCC1)c1c(Cl)ccc2nc(NCCN3CCOCC3)ccc12 (stereo not drawn) [Compound 439]	40.7 nM
O=C(NCC(c1cnc(C(F)(F)F)nc1)N1CCOCC1)c1c(Cl)ccc2nc(NCc3ccc4c(c3)OCO4)ccc12 (stereo not drawn) [Compound 440]	37.2 nM
CC(=O)N1C[C@H]2CC[C@@H]1N(c1ccc3c(C(=O)NCC(c4cnc(C(F)(F)F)nc4)N4CCOCC4)c(Cl)ccc3n1)C2 (stereo partly drawn) [Compound 443]	282 nM
O=C(NCC(c1cnc(C(F)(F)F)nc1)N1CCOCC1)c1c(Cl)ccc2nc(N3CCCNCC3)ccc12 (stereo not drawn) [Compound 444]	25.7 nM
O=C(NCC(c1cnc(C(F)(F)F)nc1)N1CCOCC1)c1c(Cl)ccc2nc(N3CCC(c4n[nH]c(=O)[nH]4)CC3)ccc12 (stereo not drawn) [Compound 445]	23.4 nM
O=C(NCC(c1cnc(C(F)(F)F)nc1)N1CCOCC1)c1c(Cl)ccc2nc(N3CCC(n4cn[nH]c4=O)CC3)ccc12 (stereo not drawn) [Compound 446]	34.7 nM
O=C(NCC(c1cnc(C(F)(F)F)nc1)N1CCOCC1)c1c(Cl)ccc2nc(NCc3cc(F)cc(F)c3)ccc12 (stereo not drawn) [Compound 447]	309 nM
CC1CN(c2ccc3c(C(=O)NCC(c4cnc(C(F)(F)F)nc4)N4CCOCC4)c(Cl)ccc3n2)CCO1 (stereo not drawn) [Compound 453]	20.9 nM
C[C@H]1CCCN(c2ccc3c(C(=O)NCC(c4cnc(C(F)(F)F)nc4)N4CCOCC4)c(Cl)ccc3n2)C1 (stereo partly drawn) [Compound 454]	19.1 nM
CC(CO)Nc1ccc2c(C(=O)NCC(c3cnc(C(F)(F)F)nc3)N3CCOCC3)c(Cl)ccc2n1 (stereo not drawn) [Compound 456]	7.24 nM
CCC(C)Nc1ccc2c(C(=O)NCC(c3cnc(C(F)(F)F)nc3)N3CCOCC3)c(Cl)ccc2n1 (stereo not drawn) [Compound 457]	0.955 nM
O=C(NCC(c1cnc(C(F)(F)F)nc1)N1CCOCC1)c1c(Cl)ccc2nc(N3CC(O)C3)ccc12 (stereo not drawn) [Compound 458]	3.02 nM
O=C(NCC(c1cnc(C(F)(F)F)nc1)N1CCOCC1)c1c(Cl)ccc2nc(N3CCCOCC3)ccc12 (stereo not drawn) [Compound 459]	2.63 nM
O=C(NCC(c1cnc(C(F)(F)F)nc1)N1CCOCC1)c1c(Cl)ccc2nc(N3C[C@@H]4CN[C@H]3C4)ccc12 (stereo partly drawn) [Compound 460]	8.91 nM
CC(=O)N1C[C@@H]2C[C@H]1N(c1ccc3c(C(=O)NCC(c4cnc(C(F)(F)F)nc4)N4CCOCC4)c(Cl)ccc3n1)C2 (stereo partly drawn) [Compound 461]	107 nM
CCN(CC)c1ccc2c(C(=O)NCC(c3cnc(C(F)(F)F)nc3)N3CCOCC3)c(Cl)ccc2n1 (stereo not drawn) [Compound 462]	9.12 nM
O=C(O)CCCNc1ccc2c(C(=O)NCC(c3cnc(C(F)(F)F)nc3)N3CCOCC3)c(Cl)ccc2n1 (stereo not drawn) [Compound 463]	380 nM
CC(C)Nc1ccc2c(C(=O)NCC(c3cnc(C(F)(F)F)nc3)N3CCOCC3)c(Cl)ccc2n1 (stereo not drawn) [Compound 496]	6.61 nM
